Measured values reported in patent US8609653B2, “Azaindole compounds and methods for treating HIV” (priority 2011, dated 2013).
Structures can show the parent of a compound that is named as a salt.

Test system: HIV
Test: MT4 assay: antiviral HIV activity in MT-4 cells
Format: cell-based
Settings: Human immunodeficiency virus 1, MT4, 96 h, read-out: HIV MT4 Assay IC50 (μM), HTLV-1 transformed cell line MT-4; read-out 96 hours later with cell titer glo; 10 point dose response
In short: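 Compounds tested in HTLV-1-transformed MT-4 cells for protection from HIV, with cytotoxicity run in parallel under the same conditions; CellTiter-Glo luminescence read 96 h later. IC50 from 10-point, 3–4-fold serial dilutions spanning >1000-fold, % inhibition relative to no-compound control, fitted by four-parameter logistic.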

Point of comparison: Cc1cc(F)ccc1Cn1ccc2c(-c3ccc4c(c3C)CCCO4)c([C@H](OC(C)(C)C)C(=O)O)c(C)nc21 [Example 125, (2S)-2-(tert-butoxy)-2-(1-(4-fluoro-2-methylbenzyl)-6-methyl-4-(5-methylchroman-6-yl)-1H-pyrrolo[2,3-b]pyridin-5-yl)acetic acid], IC50 0.003 µM. Against it:
- Cc1ccc(-c2c([C@H](OC(C)(C)C)C(=O)O)c(C)nc3c2ccn3Cc2ccc(F)c(F)c2)c(F)c1 [Example 115, (2S)-2-(tert-Butoxy)-2-(1-(3,4-difluorobenzyl)-4-(2-fluoro-4-methylphenyl)-6-methyl-1H-pyrrolo[2,3-b]pyridin-5-yl)acetic acid] — 9.7-fold higher, 0.029 µM
- Cc1nc2c(ccn2Cc2ccc(F)c(F)c2)c(-c2ccc3ncsc3c2)c1[C@H](OC(C)(C)C)C(=O)O [Example 117, (S)-2-(4-(Benzo[d]thiazol-6-yl)-1-(3,4-difluorobenzyl)-6-methyl-1H-pyrrolo[2,3-b]pyridin-5-yl)-2-(tert-butoxy)acetic acid, Trifluoroacetic acid salt] — 12-fold higher, 0.036 µM
- Cc1nc2c(ccn2Cc2ccc(F)c(F)c2)c(C2=CCCCC2)c1[C@H](OC(C)(C)C)C(=O)O [Example 120, (S)-2-(tert-butoxy)-2-(4-(cyclohex-1-en-1-yl)-1-(3,4-difluorobenzyl)-6-methyl-1H-pyrrolo[2,3-b]pyridin-5-yl)acetic acid] — 50-fold higher, 0.15 µM
- COc1cccc(F)c1Cn1ccc2c(-c3ccc4c(c3C)CCCO4)c([C@H](OC(C)(C)C)C(=O)O)c(C)nc21 [Example 121, (2S)-2-(tert-butoxy)-2-(1-(2-fluoro-6-methoxybenzyl)-6-methyl-4-(5-methylchroman-6-yl)-1H-pyrrolo[2,3-b]pyridin-5-yl)acetic acid] — 1.5-fold lower, 0.002 µM
- Cc1nc2c(ccn2Cc2ccc(F)c(F)c2)c(-c2ccc3c(c2)C(C)(C)CO3)c1[C@H](OC(C)(C)C)C(=O)O [Example 123, (S)-2-(tert-butoxy)-2-(1-(3,4-difluorobenzyl)-4-(3,3-dimethyl-2,3-dihydrobenzofuran-5-yl)-6-methyl-1H-pyrrolo[2,3-b]pyridin-5-yl)acetic acid] — 950-fold higher, 2.86 µM
- Cc1nc2c(c(-c3ccc4c(c3C)CCCO4)c1C(OC(C)(C)C)C(=O)O)c1ccccc1n2C (centres unmarked) [Example 127, 2-(tert-butoxy)-2-(2,9-dimethyl-4-(5-methylchroman-6-yl)-9H-pyrido[2,3-b]indol-3-yl)acetic acid] — 17-fold higher, 0.05 µM
- Cc1nc2c(c3c(n2C2CC2)CCCC3)c(-c2ccc3c(c2C)CCCO3)c1C(OC(C)(C)C)C(=O)O (centres unmarked) [Example 128, 2-(tert-butoxy)-2-(9-cyclopropyl-2-methyl-4-(5-methylchroman-6-yl)-6,7,8,9-tetrahydro-5H-pyrido[2,3-b]indol-3-yl)acetic acid] — 20-fold higher, 0.06 µM
